# Experimental data: patent US12528802B2, “Heterocyclic compound” (Takeda Pharmaceutical Company Limited, priority 2019, dated 2026)
# Target: T1, glucosylceramide synthase (Homo sapiens, UniProt Q16739)
# T1 construct: made in house; host or cells: Expi293F cells (transient expression, pcDNA3.3-TOPO vector); microsome fraction used as enzyme source
# T1 sequence (Q16739 1-394): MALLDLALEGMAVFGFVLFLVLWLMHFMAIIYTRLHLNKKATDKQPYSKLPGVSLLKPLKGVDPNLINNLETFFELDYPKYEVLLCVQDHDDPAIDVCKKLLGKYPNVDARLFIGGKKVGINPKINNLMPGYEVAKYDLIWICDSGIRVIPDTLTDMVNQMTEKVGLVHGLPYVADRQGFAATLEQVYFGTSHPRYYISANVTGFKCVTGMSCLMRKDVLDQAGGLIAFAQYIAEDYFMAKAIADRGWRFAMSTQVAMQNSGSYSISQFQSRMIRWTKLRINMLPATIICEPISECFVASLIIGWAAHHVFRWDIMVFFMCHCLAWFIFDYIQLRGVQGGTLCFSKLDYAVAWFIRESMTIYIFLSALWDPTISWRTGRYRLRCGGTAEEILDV
# Test: Glucosylceramide synthase (GCS) enzyme assay, microsome fraction, C8 glucosylceramide quantified by Rapidfire MS/MS
# Type: biochemical
# Conditions: test compound 10 μM; 1.7 μM UDP-glucose, 3 μM C8 ceramide; room temperature 60 min; read-out: GCS enzyme inhibitory rate at 10 μM (%) (% of control)
# How it was run: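 Test compound, 10 μM final, was run against human GCS from transfected Expi293F microsome fractions, using substrate solution of 6 μM C8 ceramide (in DOPC liposomes) plus 3.4 μM UDP-glucose, pH 7.5 Tris buffer, 60 min, room temperature. Product C8 glucosylceramide measured by Rapidfire MS/MS against an internal standard, % inhibition referenced to no-enzyme and DMSO wells.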
row,Compound,inhibition at 10 µM [%]
1,"CC(C)(O)c1ccc(N2Cc3c(ccnc3-c3ccccc3OCC(F)(F)F)C2=O)nc1 [Example 273, 2-[5-(2-hydroxypropan-2-yl)pyridin-2-yl]-4-[2-(2,2,2-trifluoroethoxy)phenyl]-2,3-dihydro-1H-pyrrolo [3,4-c]pyridin-1-one]",100
2,"CC(C)(O)c1ccc(N2Cc3c(ccnc3-c3ccc(F)cc3OCC(F)F)C2=O)cc1F [Example 274, 4-[2-(2,2-difluoroethoxy)-4-fluorophenyl]-2-[3-fluoro-4-(2-hydroxypropan-2-yl)phenyl]-2,3-dihydro-1H-pyrrolo[3,4-c]pyridin-1-one]",97
3,"CC(C)(O)c1ccc(N2Cc3c(ccnc3-c3ccncc3OCC(F)(F)F)C2=O)nc1 [Example 275, 2-[5-(2-hydroxypropan-2-yl)pyridin-2-yl]-4-[3-(2,2,2-trifluoroethoxy)pyridin-4-yl]-2,3-dihydro-1H-pyrrolo [3,4-c]pyridin-1-one]",94
4,"CC(C)(O)C(F)(F)c1ccc(N2Cc3c(ccnc3-c3ccncc3OCC(F)(F)F)C2=O)cc1 [Example 283, 2-[4-(1,1-difluoro-2-hydroxy-2-methylpropyl)phenyl]-4-[3-(2,2,2-trifluoroethoxy)pyridin-4-yl]-2,3-dihydro-1H-pyrrolo[3,4-c] pyridin-1-one]",94
5,"O=C1c2ccnc(-c3ccncc3OCC(F)(F)F)c2CN1c1ccc(C(O)(C(F)F)C(F)F)cc1 [Example 284, 2-[4-(1,1,3,3-tetrafluoro-2-hydroxypropan-2-yl)phenyl]-4-[3-(2,2,2-trifluoroethoxy)pyridin-4-yl]-2,3-dihydro-1H-pyrrolo[3,4-c] pyridin-1-one]",99
6,"O=C1c2ccnc(-c3ccncc3OCC(F)(F)F)c2CN1c1ccc(C2(O)CC(F)(F)C2)c(F)c1 [Example 287, 2-[4-(3,3-difluoro-1-hydroxycyclobutyl)-3-fluorophenyl]-4-[3-(2,2,2-trifluoroethoxy)pyridin-4-yl]-2,3-dihydro-1H-pyrrolo[3,4-c] pyridin-1-one]",99
7,"CC(C)(O)c1ccc(N2Cc3c(ccnc3-c3ccccc3OCC(F)F)C2=O)nc1 [Example 288, 4-[2-(2,2-difluoroethoxy)phenyl]-2-[5-(2-hydroxypropan-2-yl)pyridin-2-yl]-2,3-dihydro-1H-pyrrolo [3,4-c]pyridin-1-one]",99
8,"CC(C)(O)c1ccc(N2Cc3c(ccnc3-c3ccc(F)cc3OCC(F)F)C2=O)nc1 [Example 289, 4-[2-(2,2-difluoroethoxy)-4-fluorophenyl]-2-[5-(2-hydroxypropan-2-yl)pyridin-2-yl]-2,3-dihydro-1H-pyrrolo [3,4-c]pyridin-1-one]",98
9,"O=C1c2ccnc(-c3ccccc3OCC(F)F)c2CN1c1ccc(C2(O)CCC2)cc1 [Example 290, 4-[2-(2,2-difluoroethoxy)phenyl]-2-[4-(1-hydroxycyclobutyl)phenyl]-2,3-dihydro-1H-pyrrolo[3,4-c] pyridin-1-one]",100
10,"CC(C)(O)C(F)(F)c1ccc(N2Cc3c(ccnc3-c3ccc(F)cc3OCC(F)(F)F)C2=O)cn1 [Example 291, 2-[6-(1,1-difluoro-2-hydroxy-2-methylpropyl)pyridin-3-yl]-4-[4-fluoro-2-(2,2,2-trifluoroethoxy)phenyl]-2,3-dihydro-1H-pyrrolo[3,4-c]pyridin-1-one]",79
11,"O=C1c2ccnc(-c3ccncc3OCC(F)(F)F)c2CN1c1ccc(C2(F)COC2)cc1 [Example 294, 2-[4-(3-fluorooxetan-3-yl)phenyl]-4-[3-(2,2,2-trifluoroethoxy)pyridin-4-yl]-2,3-dihydro-1H-pyrrolo [3,4-c]pyridin-1-one]",99
12,"CC(C)(O)COc1ccc(N2Cc3c(ccnc3-c3ccccc3OCC(F)(F)F)C2=O)nc1 [Example 297, 2-[5-(2-hydroxy-2-methylpropoxy)pyridin-2-yl]-4-[2-(2,2,2-trifluoroethoxy)phenyl]-2,3-dihydro-1H-pyrrolo[3,4-c]pyridin-1-one]",100
13,"CC(C)(O)COc1cnc(N2Cc3c(ccnc3-c3ccccc3OCC(F)(F)F)C2=O)cn1 [Example 298, 2-[5-(2-hydroxy-2-methylpropoxy)pyrazin-2-yl]-4-[2-(2,2,2-trifluoroethoxy)phenyl]-2,3-dihydro-1H-pyrrolo[3,4-c]pyridin-1-one]",98
14,"CC(C)(O)COc1cnc(N2Cc3c(ccnc3-c3ccc(F)cc3OCC(F)(F)F)C2=O)cn1 [Example 299, 4-[4-fluoro-2-(2,2,2-trifluoroethoxy)phenyl]-2-[5-(2-hydroxy-2-methylpropoxy)pyrazin-2-yl]-2,3-dihydro-1H-pyrrolo [3,4-c]pyridin-1-one]",97
15,"N#CC1(c2ccc(N3Cc4c(ccnc4-c4ccc(F)cc4OCC(F)F)C3=O)cc2)CC1 [Example 302, 1-(4-{4-[2-(2,2-difluoroethoxy)-4-fluorophenyl]-1-oxo-1,3-dihydro-2H-pyrrolo[3,4-c]pyridin-2-yl}phenyl) cyclopropane-1-carbonitrile]",92
16,"CC(C)(C#N)c1ccc(N2Cc3c(ccnc3-c3ccc(F)cc3OCC(F)F)C2=O)cc1 [Example 303, 2-(4-{4-[2-(2,2-difluoroethoxy)-4-fluorophenyl]-1-oxo-1,3-dihydro-2H-pyrrolo[3,4-c]pyridin-2-yl}phenyl)-2-methylpropanenitrile]",100
17,"N#CC1(c2ccc(N3Cc4c(ccnc4-c4ccccc4OCC(F)F)C3=O)cc2)CC1 [Example 304, 1-(4-{4-[2-(2,2-difluoroethoxy)phenyl]-1-oxo-1,3-dihydro-2H-pyrrolo[3,4-c]pyridin-2-yl}phenyl) cyclopropane-1-carbonitrile]",99
18,"CC(C)(O)Cc1ccc(N2Cc3c(ccnc3-c3ccc(F)cc3OCC(F)(F)F)C2=O)cc1 [Example 305, 4-[4-fluoro-2-(2,2,2-trifluoroethoxy)phenyl]-2-[4-(2-hydroxy-2-methylpropyl)phenyl]-2,3-dihydro-1H-pyrrolo[3,4-c]pyridin-1-one]",99
19,"CC(C)(O)COc1ccc(N2Cc3c(ccnc3-c3ccccc3OCC(F)F)C2=O)nc1 [Example 306, 4-[2-(2,2-difluoroethoxy)phenyl]-2-[5-(2-hydroxy-2-methylpropoxy)pyridin-2-yl]-2,3-dihydro-1H-pyrrolo [3,4-c]pyridin-1-one]",99
20,"CC(C)(O)Cc1ccc(N2Cc3c(ccnc3-c3ccncc3OCC(F)(F)F)C2=O)cc1 [Example 307, 2-[4-(2-hydroxy-2-methylpropyl)phenyl]-4-[3-(2,2,2-trifluoroethoxy)pyridin-4-yl]-2,3-dihydro-1H-pyrrolo [3,4-c]pyridin-1-one]",91
21,"Cn1nc(N2Cc3c(ccnc3-c3ccc(F)cc3OCC(F)(F)F)C2=O)cc1OC(F)F [Example 309, 2-[5-(difluoromethoxy)-1-methyl-1H-pyrazol-3-yl]-4-[4-fluoro-2-(2,2,2-trifluoroethoxy)phenyl]-2,3-dihydro-1H-pyrrolo[3,4-c]pyridin-1-one]",60
22,"O=C1c2ccc(=O)n(-c3ccc(F)cc3OCC(F)(F)F)c2CN1c1ccc(OC(F)F)cn1 [Example 310, 6-[5-(difluoromethoxy)pyridin-2-yl]-1-[4-fluoro-2-(2,2,2-trifluoroethoxy)phenyl]-6,7-dihydro-1H-pyrrolo[3,4-b]pyridine-2,5-dione]",99
23,"O=C1c2ccnc(-c3ccccc3OCC(F)(F)F)c2CN1c1ccc(C2(O)CC(F)(F)C2)nc1 [Example 316, 2-[6-(3,3-difluoro-1-hydroxycyclobutyl)pyridin-3-yl]-4-[2-(2,2,2-trifluoroethoxy)phenyl]-2,3-dihydro-1H-pyrrolo[3,4-c]pyridin-1-one]",99
24,"Cn1nc(N2Cc3c(ccnc3-c3ccc(F)cc3OCC(F)(F)F)C2=O)cc1C#N [Example 318, 3-{4-[4-fluoro-2-(2,2,2-trifluoroethoxy)phenyl]-1-oxo-1,3-dihydro-2H-pyrrolo [3,4-c]pyridin-2-yl}-1-methyl-1H-pyrazole-5-carbonitrile]",52
25,"CC(=O)c1ccc(N2Cc3c(ccnc3-c3c(F)cccc3OCC(F)(F)F)C2=O)cc1 [Example 319, 2-(4-acetylphenyl)-4-[2-fluoro-6-(2,2,2-trifluoroethoxy)phenyl]-2,3-dihydro-1H-pyrrolo[3,4-c]pyridin-1-one]",97
26,"CC(C)(O)c1ccc(N2Cc3c(ccnc3-c3c(F)cc(F)cc3OCC(F)(F)F)C2=O)cc1 [Example 320, 4-[2,4-difluoro-6-(2,2,2-trifluoroethoxy)phenyl]-2-[4-(2-hydroxypropan-2-yl)phenyl]-2,3-dihydro-1H-pyrrolo[3,4-c]pyridin-1-one]",99
27,"Cn1cc2c(c(-c3ccccc3OCC(F)(F)F)c1=O)CN(c1ccc(C(C)(C)O)cc1)C2=O [Example 321, 2-[4-(2-hydroxypropan-2-yl)phenyl]-5-methyl-7-[2-(2,2,2-trifluoroethoxy)phenyl]-1H-pyrrolo[3,4-c]pyridine-3,6(2H,5H)-dione]",100
